Experimental data taken from patent US11590129B2, “Combination therapy with an antitumor alkaloid” (PHARMA MAR, S.A., priority 2010, dated 2023).

What was measured:
[1] = test system: U87-MG human glioblastoma cell line; test: cells; conditions: Homo sapiens, U-87 MG, 72 h
[2] = test system: JURKAT human leukemia cell line; test: cells; conditions: Homo sapiens, Jurkat, 72 h
Protocol: (§1) Additional serial dilutions were prepared in serum-free culture medium to achieve a final 4× concentration. Aliquots of 50 μL of each diluted compound were added per well.
(§2) JURKAT and MOLT-4 were the human leukemia cell lines selected for this assay, which were obtained from the American Type Culture Collection (ATCC).
(§3) Briefly, cells were seeded in 96 well microtiter plates at a density of 50000 cells per well in 150 μL of culture medium and incubated for 4-6 hours in drug-free medium before treatment with vehicle alone or test compounds for 72 hours.
(§4) After incubation, the cytotoxic effect was evaluated using a MTT reduction assay. 50 μL of MTT solution (1 mg/mL) were added to the wells and incubated for 15-17 hours at 37° C. until formazan crystals were formed. After gently removing the culture medium, DMSO was added to dissolve the insoluble purple formazan product into a colored solution. […] Results were expressed as percentage of control cell growth. The EC50 values (half-maximal effective concentration) used for the combination studies were calculated using Prism v5.02 software (GraphPad). EC50 was expressed as molar concentration and represented the mean of at least three independent assays.
(§5) b. In a second set of experiments, concentration-response curves for the agents tested, both alone and in two-drug combination, were performed, using the same methodology described in the previous paragraph.
(§6) Using these starting concentrations, constant serial dilutions were performed to generate the concentration-response curves for each set of drugs, alone and in combination.
(§7) Based on this equation, the term “combination index” (CI) is used as a quantitative measure of the degree of drug interactions. […] CI values were calculated by solving the equation for different values of fa (i.e., for different degrees of cell groth inhibition).
(§8) Data were analyzed using CalcuSyn software (Biosoft, Cambridge, UK). For statistical analysis and graphs Prism software (GraphPad, San Diego, USA) was used. All the results represent the mean of at least three independent experiments.

[3] = test system: MOLT-4 human leukemia cell line; test: cells; conditions: Homo sapiens, MOLT-4, 72 h
Protocol: as §1, §2, §3, §4, §5, §6, §7, §8

[4] = test system: HGC-27 human gastric carcinoma cell line; test: cells; conditions: Homo sapiens, HGC-27, 72 h
HGC-27 tumors = test: Human gastric tumor xenografts (HGC-27) in athymic nude mice, tumor volume % T/C; type: in vivo
Protocol: Female athymic nude mice (Harlan Laboratories Models, S.L. (Barcelona, Spain) were utilized for all experiments. Animals were housed in individually ventilated cages, up to ten per cage in a 12-hour light-dark cycle at 21-23° C. and 40-60% humidity. The mice were allowed free access to irradiated standard rodent diet and sterilized water. Animals were acclimated for at least 5 days prior to tumor implantation with a tumor cell suspension.
HGC-27 cells were grown at 37° C. with 5% CO2 in Iscove's modified Dulbeco's medium (IDMD).
PM01183 was provided in the form of vials of lyophilized PM01183 cake which was reconstituted with water for infusion to a concentration of 0.2 mg/mL. The PM01183 stock solution was further diluted in 5% glucose solution for injection to the dosing formulation concentrations. Cisplatin and 5-fluorouracil were provided as solutions prepared by diluting the product with 0.9% saline solution for injection to the target final concentration.
Dose level groups were administered either as single agents or in combination.
Comparison of the median tumor volume in the treatment groups (T) to the median tumor volume in the control group (T/C×100%) was used for evaluation of the antitumor efficacy.

[5] = test system: A673 human rhabdomyosarcoma cell line; test: cells; conditions: Homo sapiens, A673, 72 h
Outline: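 A673 cells seeded at 5,000 per well, grown 24 h drug-free, then exposed to compounds for 72 h. Viability by MTT reduction (8 h, 37 °C), formazan dissolved in DMSO. Results expressed as percentage of control cell growth.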

[6] = PM01183 0.045 mg/kg iv days 0,7, 5-fluorouracil study
[7] = PM01183 0.045 mg/kg iv days 0,7, cisplatin study
[8] = PM01183 0.09 mg/kg iv days 0,7, 5-fluorouracil study
[9] = PM01183 0.09 mg/kg iv days 0,7, cisplatin study
[10] = PM01183 0.135 mg/kg iv days 0,7, 5-fluorouracil study
[11] = PM01183 0.135 mg/kg iv days 0,7, cisplatin study
[12] = PM01183 0.18 mg/kg iv days 0,7, 5-fluorouracil study
[13] = PM01183 0.18 mg/kg iv days 0,7, cisplatin study

## COc1ccc2[nH]c3c(c2c1)CCN[C@]31CS[C@@H]2c3c(OC(C)=O)c(C)c4c(c3[C@H](COC1=O)N1[C@@H]2[C@H]2c3c(cc(C)c(OC)c3O)C[C@@H]([C@@H]1O)N2C)OCO4 [PM01183]
[1]
  IC50: 4.5 nM
[2]
  EC50: 1.55 nM
[3]
  EC50: 0.857 nM
[4]
  IC50: 0.85 nM
HGC-27 tumors; [6]
  % T/C on day 0: 99.9%
  % T/C on day 2: 84.3%
  % T/C on day 5: 103.2%
  % T/C on day 7: 104.6%
  % T/C on day 9: 103.5%
  % T/C on day 12: 101.6%
  % T/C on day 14: 85.0%
HGC-27 tumors; [7]
  % T/C on day 0: 98.9%
  % T/C on day 3: 85.9%
  % T/C on day 5: 83.1%
  % T/C on day 7: 92.1%
  % T/C on day 10: 76.4%
  % T/C on day 12: 81.6%
  % T/C on day 14: 88.5%
HGC-27 tumors; [8]
  % T/C on day 0: 100.6%
  % T/C on day 2: 90.5%
  % T/C on day 5: 87.6%
  % T/C on day 7: 83.4%
  % T/C on day 9: 82.6%
  % T/C on day 12: 76.7%
  % T/C on day 14: 67.7%
HGC-27 tumors; [9]
  % T/C on day 0: 98.6%
  % T/C on day 3: 67.5%
  % T/C on day 5: 67.9%
  % T/C on day 7: 66.1%
  % T/C on day 10: 70.2%
  % T/C on day 12: 60.3%
  % T/C on day 14: 65.0%
HGC-27 tumors; [10]
  % T/C on day 0: 100.2%
  % T/C on day 2: 81.5%
  % T/C on day 5: 58.7%
  % T/C on day 7: 61.4%
  % T/C on day 9: 60.2%
  % T/C on day 12: 54.6%
  % T/C on day 14: 55.1%
HGC-27 tumors; [11]
  % T/C on day 0: 97.9%
  % T/C on day 3: 71.6%
  % T/C on day 5: 59.9%
  % T/C on day 7: 47.8%
  % T/C on day 10: 39.3%
  % T/C on day 12: 37.1%
  % T/C on day 14: 38.3%
HGC-27 tumors; [12]
  % T/C on day 0: 99.6%
  % T/C on day 2: 78.6%
  % T/C on day 5: 50.9%
  % T/C on day 7: 43.3%
  % T/C on day 9: 41.0%
  % T/C on day 12: 33.0%
  % T/C on day 14: 29.2%
HGC-27 tumors; [13]
  % T/C on day 0: 99.6%
  % T/C on day 3: 65.9%
  % T/C on day 5: 55.6%
  % T/C on day 7: 38.7%
  % T/C on day 10: 33.5%
  % T/C on day 12: 24.3%
  % T/C on day 14: 24.3%
[5]
  IC50: 2.2 nM
